From ChEMBL document CHEMBL1201862, “PubChem BioAssay data set” (2004)
Calls of active or inactive are those of the source.

Experiments:
[1] = luciferase reporter signal suppression in cells – H4 neuroglioma cells, luminescence, dose response (AID 1990); assay type: functional, cell-based
[2] = Luminescence Cell-Based Dose Response HTS to Identify Inhibitors of 5'UTR Stem-Loop Driven Prion Protein mRNA Translation in H4 Neuroglioblastoma Cells. [Related pubchem assays: 1827 (Project Summary), 1813 (Primary HTS)]; assay type: functional
[3] = alpha-synuclein stem-loop luciferase translation blockers – H4 neuroglioma cells, luminescence, confirmation (AID 1988); assay type: functional, cell-based
[4] = viability of PTEN-deleted HCT116 cells – cell-based, HCT116 PTEN knockout, dose response (AID 1047); assay type: functional;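 note: HCT116 colon tumor cells with PTEN knocked out; cells exposed to compound for 60 hours before readout; potency for loss of cell viability measured by luminescence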
[5] = viability of HCT116 lacking mutant beta-catenin – cell-based, human colon tumor, dose response (AID 1045); assay type: functional;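 note: HCT116 colon tumor cells with beta catenin knocked out; cells exposed to compound for 60 hours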
[6] = biological target: T1, Ubiquitin-conjugating enzyme E2 N (Homo sapiens, UniProt P61088); assay type: functional;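 note: Dose-response confirmation in a TR-FRET assay detecting UBC13-driven polyubiquitin chain formation, inhibition measured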
T1 sequence (P61088 whole entry): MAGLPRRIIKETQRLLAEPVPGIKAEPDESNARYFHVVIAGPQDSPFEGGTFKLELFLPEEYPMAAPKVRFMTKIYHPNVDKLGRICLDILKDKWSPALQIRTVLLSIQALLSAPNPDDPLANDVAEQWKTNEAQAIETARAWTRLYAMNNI

Cytochrome P450 2C19 = Cytochrome P450 2C19 (Homo sapiens, UniProt P33261); test: Cytochrome panel assay with activity outcomes. Panel member name: p450-cyp2c19 Compounds with AC50 equal or less than 10 uM are considered active; assay type: functional; conditions: read-out: AC50
INS1 = test: INS-1E survival protection against cytokine death – cell-based, luminescence, retest, dose response (AID 449756); assay type: functional; conditions: Rattus norvegicus;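 note: cell death triggered by IL-1 beta plus TNF-alpha plus IFN-gamma mixture; protective hits raise ATP signal compared with cytokine alone wells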
[7] = biological target: Beta-2 adrenergic receptor (Homo sapiens, UniProt P07550); test: ADRB2 activation measured by internalization – cell-based, FAP fluorogen, flow cytometry, cherry pick 1, dose response (AID 588763); assay type: functional
[8] = reduction of Shn3 3'UTR-driven luciferase in osteoblasts – cell-based, Clone20 osteoblasts, firefly luciferase, cherry-picked, dose response (AID 624132); assay type: functional;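 note: firefly luciferase luminescence from reporter carrying the Shn3 3'UTR in osteoblasts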
[9] = loss of viability in HepG2 cells – cell-based, CellTiter-Glo, cherry-picked, cytotoxicity control for Shn3 inhibitor project, dose response (AID 624134); assay type: functional
[10] = non-specific 3'UTR reporter inhibition in Clone20-Shn3RL – cell-based, Renilla luciferase, cherry-picked, counter-screen for Shn3 inhibitor project, dose response (AID 624133); assay type: functional
Cytochrome P450 2C9 = Cytochrome P450 2C9 (Homo sapiens, UniProt P11712)
[11] = viability of uninfected HEp-2 cells – cell-based, HTS, cytotoxicity control for RSV inhibitor project, dose response (AID 2410); assay type: functional; conditions: human respiratory syncytial virus
[12] = system: Streptococcus sp. 'group A'; test: Streptococcus pyogenes SK(-)GAS viability under kanamycin – luminescence, BacTiterGlo, confirmation, counter-screen for streptokinase expression inhibitor project, dose response (AID 1900); assay type: functional, organism-based
[13] = A Cell Based Secondary Assay To Explore Cytotoxicity of Compounds that Sensitize Mycobacterium Tuberculosis to Beta-Lactam Antibiotics.; assay type: functional
Streptokinase A = biological target: T2, Streptokinase A (Streptococcus pyogenes serotype M1, UniProt P10520); test: viability-normalized secreted streptokinase activity reduction – plasminogen activation absorbance, OD405, dose response (AID 1914); assay type: functional, Streptococcus pyogenes M1 GAS;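 note: secreted streptokinase activity via plasminogen activation per viability signal from cell pellet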
T2 sequence (P10520 whole entry): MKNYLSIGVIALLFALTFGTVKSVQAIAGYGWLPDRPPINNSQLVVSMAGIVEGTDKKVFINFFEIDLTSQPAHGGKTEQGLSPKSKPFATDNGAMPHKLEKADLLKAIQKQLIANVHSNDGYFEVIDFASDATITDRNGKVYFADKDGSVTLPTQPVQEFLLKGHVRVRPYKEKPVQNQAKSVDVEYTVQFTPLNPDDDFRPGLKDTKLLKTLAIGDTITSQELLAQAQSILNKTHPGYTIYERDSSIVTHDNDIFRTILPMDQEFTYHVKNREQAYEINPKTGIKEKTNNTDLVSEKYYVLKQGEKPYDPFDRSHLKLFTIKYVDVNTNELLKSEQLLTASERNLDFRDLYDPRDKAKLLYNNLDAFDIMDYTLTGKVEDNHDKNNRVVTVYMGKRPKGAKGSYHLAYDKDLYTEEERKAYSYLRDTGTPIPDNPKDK

Streptococcus = test: GAS UMAA2166 growth inhibition – luminescence, BacTiterGlo, counter-screen for streptokinase expression inhibitor project, dose response (AID 1915); assay type: functional, organism-based;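 note: potency for reduction of bacterial viability or growth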
HEK293 [14] = test: HEK293T cell viability loss, resazurin readout – resazurin fluorescence, cytotoxicity control for NF-kB activator project, SAR follow-up (AID 493251); assay type: functional, cell-based; conditions: Homo sapiens
Jurkat = test: SAR Analysis of small molecule inhibitors of T-cell specific antigen receptor-induced NF-kB activation in a Jurkat cell line using a luminescence assay - Set 2. [Related pubchem assays (depositor defined):AID435003, AID435012, AID465]; assay type: functional, cell-based; conditions: Homo sapiens
HEK293 [15] = test: SAR Analysis of small molecule inhibitors of T-cell specific antigen receptor-induced NF-kB activation in a HEK-293T cell line using a luminescence assay - Set 2. [Related pubchem assays (depositor defined):AID435003, AID435012, AID489026]; assay type: functional, cell-based; conditions: Homo sapiens
cells [16] = test: cells
DNA topoisomerase = DNA topoisomerase (Yersinia pestis, UniProt A0A2S9PM60); test: Yersinia topoisomerase I cleavage product accumulation – biochemical, cherry-pick, dose response (AID 588525)
cells [17] = assay type: functional
[18] = A Cell Based Secondary Assay to Explore Cytotoxicity in THP-1 Cells of Compounds that Modulate Mycobacterium tuberculosis in Media Containing Glycerol versus Media without Glycerol (2).; assay type: functional
[19] = Vero cell cytotoxicity, cytotoxicity control for M. tuberculosis inhibitor project, purified and synthesized samples, set 3 (AID 504684); assay type: functional
[20] = HepG2 cell cytotoxicity, cytotoxicity control, set 4 (AID 504910); assay type: functional; conditions: Mycobacterium tuberculosis
[21] = THP-1 cell cytotoxicity, cytotoxicity control, set 4 (AID 504911); assay type: functional; conditions: Mycobacterium tuberculosis
[22] = A Cell Based Secondary Assay to Explore Cytotoxicity in HepG2 Cells of Compounds that Modulate Mycobacterium tuberculosis in Media Containing Glycerol versus Media without Glycerol (2).; assay type: functional
[23] = HepG2 cell cytotoxicity, dose response, cytotoxicity control, set 3 (AID 504853); assay type: functional; conditions: Mycobacterium tuberculosis
[24] = THP-1 cell cytotoxicity, dose response, cytotoxicity control, set 3 (AID 504852); assay type: functional; conditions: Mycobacterium tuberculosis
BJ [25] = test: BJ-TERT fibroblast viability loss – cell-based, RAS-independent, luminescence, dose response (AID 1933); assay type: functional; conditions: Homo sapiens
BJ [26] = test: cells; assay type: functional, cell-based; conditions: Homo sapiens
BJ [27] = test: BJ-TERT-LT-ST fibroblast viability loss – cell-based, RAS-independent, luminescence, dose response (AID 1935); assay type: functional; conditions: Homo sapiens;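 note: BJ fibroblasts immortalized with TERT plus LT and ST oncogenes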
[28] = DRD fibroblast viability loss – cell-based, non-viral oncogenic, luminescence, dose response (AID 1934); assay type: functional; conditions: Homo sapiens
[29] = HEK-293T viability loss after treatment – luminescence, T-cell screen hits, cytotoxicity control for TCR NF-kB inhibitor project, dose response (AID 489026); assay type: functional, cell-based;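 note: cells exposed to compound about 14 hours before the viability readout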
[30] = biological target: T3, High affinity choline transporter 1 (Homo sapiens, UniProt Q9GZV3); test: human choline transporter potentiators, potency – cell-based, 10-point CRC, membrane potential dye, dose response (AID 602376); assay type: functional
T3 sequence (Q9GZV3 whole entry): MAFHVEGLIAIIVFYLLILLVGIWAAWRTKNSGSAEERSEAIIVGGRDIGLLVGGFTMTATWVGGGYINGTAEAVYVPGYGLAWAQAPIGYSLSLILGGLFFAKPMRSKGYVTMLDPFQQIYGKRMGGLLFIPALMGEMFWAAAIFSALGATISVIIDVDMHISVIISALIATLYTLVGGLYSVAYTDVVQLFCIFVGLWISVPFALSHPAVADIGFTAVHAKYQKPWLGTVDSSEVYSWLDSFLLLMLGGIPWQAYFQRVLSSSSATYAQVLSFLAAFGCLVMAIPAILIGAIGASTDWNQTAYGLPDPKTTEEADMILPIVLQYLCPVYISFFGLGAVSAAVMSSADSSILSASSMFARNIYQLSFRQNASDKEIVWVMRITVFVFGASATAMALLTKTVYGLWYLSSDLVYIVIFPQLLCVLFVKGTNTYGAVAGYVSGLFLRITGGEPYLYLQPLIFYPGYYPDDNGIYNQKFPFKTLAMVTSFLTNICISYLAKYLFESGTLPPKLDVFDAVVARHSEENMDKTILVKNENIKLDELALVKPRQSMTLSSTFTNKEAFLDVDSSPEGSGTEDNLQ

[31] = biological target: DNA dC->dU-editing enzyme APOBEC-3G (Homo sapiens, UniProt Q9HC16); test: inhibition of APOBEC3G ssDNA deamination – biochemical, fluorescence, single-stranded DNA substrate, SAR follow-up (AID 602136); assay type: functional; conditions: read-out: IC50_Mean
[32] = biological target: DNA dC->dU-editing enzyme APOBEC-3A (Homo sapiens, UniProt P31941); test: SAR analysis of small molecule inhibitors of APOBEC3A DNA Deaminase via a fluorescence-based single-stranded DNA deaminase assay.; assay type: functional; conditions: read-out: IC50_Mean
[33] = biological target: Luciferin 4-monooxygenase (Photinus pyralis, UniProt P08659); test: inhibition of purified Photinus pyralis luciferase – biochemical, dry powder samples, plate reader, dose response (AID 588451)
H4 [34] = test: inhibitors of control reporter signal in H4 cells – cell-based, plate reader, dry powder samples, counter-screen for prion reporter project, dose response (AID 540255); assay type: functional; conditions: Homo sapiens
H4 [35] = test: Amyloid Precursor 5' UTR neuroblastoma cell reporter line Measured in Cell-Based System Using Plate Reader - 2078-04_Inhibitor_Dose_DryPowder_Activity. [Related pubchem assays (depositor defined):AID488894]; assay type: functional; conditions: Homo sapiens
H4 [36] = test: Inhibitors of Prion Protein 5' UTR mRNA Measured in Cell-Based System Using Plate Reader - 2078-01_Inhibitor_Dose_DryPowder_Activity. [Related pubchem assays (depositor defined):AID488894]; assay type: functional; conditions: Homo sapiens
[37] = biological target: Protein disulfide-isomerase (Homo sapiens, UniProt P07237); test: inhibition of PDI-driven insulin aggregation – biochemical, turbidity, absorbance, cherry-picked samples, dose response (AID 602350); assay type: functional
[38] = biological target: Serine/threonine-protein kinase pim-1 (Homo sapiens, UniProt P11309); assay type: functional
[39] = biological target: Serine/threonine-protein kinase pim-3 (Homo sapiens, UniProt Q86V86); assay type: functional;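 note: value obtained as one member of a broad kinase panel profiling effort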
[40] = biological target: Dual specificity protein kinase CLK4 (Homo sapiens, UniProt Q9HAZ1); assay type: functional
Cysteine protease ATG4B = Cysteine protease ATG4B (Homo sapiens, UniProt Q9Y4P1); assay type: functional;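 note: Fluorescence-based dose-response confirmation assay measuring inhibition of ATG4B activity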
Phospholipase A2 = Phospholipase A2 (Homo sapiens, UniProt P04054); assay type: functional;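 note: confirmatory dose-response counterscreen on phospholipase A2, testing hits that came from an ultra-high-throughput screen for ATG4B inhibitors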
Sequence of Phospholipase A2 (P04054 whole entry): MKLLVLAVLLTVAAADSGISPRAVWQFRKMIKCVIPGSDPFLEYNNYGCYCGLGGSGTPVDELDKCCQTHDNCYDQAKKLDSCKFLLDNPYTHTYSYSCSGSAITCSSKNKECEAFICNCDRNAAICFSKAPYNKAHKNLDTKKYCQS

Sequence of DNA dC->dU-editing enzyme APOBEC-3A (P31941 whole entry): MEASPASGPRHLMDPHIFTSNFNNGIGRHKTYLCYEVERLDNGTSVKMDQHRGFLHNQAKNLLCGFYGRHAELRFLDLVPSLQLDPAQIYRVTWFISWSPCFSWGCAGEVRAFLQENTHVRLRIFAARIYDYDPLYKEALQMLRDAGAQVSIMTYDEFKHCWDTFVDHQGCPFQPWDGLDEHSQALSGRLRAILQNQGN
Sequence of Luciferin 4-monooxygenase (P08659 whole entry): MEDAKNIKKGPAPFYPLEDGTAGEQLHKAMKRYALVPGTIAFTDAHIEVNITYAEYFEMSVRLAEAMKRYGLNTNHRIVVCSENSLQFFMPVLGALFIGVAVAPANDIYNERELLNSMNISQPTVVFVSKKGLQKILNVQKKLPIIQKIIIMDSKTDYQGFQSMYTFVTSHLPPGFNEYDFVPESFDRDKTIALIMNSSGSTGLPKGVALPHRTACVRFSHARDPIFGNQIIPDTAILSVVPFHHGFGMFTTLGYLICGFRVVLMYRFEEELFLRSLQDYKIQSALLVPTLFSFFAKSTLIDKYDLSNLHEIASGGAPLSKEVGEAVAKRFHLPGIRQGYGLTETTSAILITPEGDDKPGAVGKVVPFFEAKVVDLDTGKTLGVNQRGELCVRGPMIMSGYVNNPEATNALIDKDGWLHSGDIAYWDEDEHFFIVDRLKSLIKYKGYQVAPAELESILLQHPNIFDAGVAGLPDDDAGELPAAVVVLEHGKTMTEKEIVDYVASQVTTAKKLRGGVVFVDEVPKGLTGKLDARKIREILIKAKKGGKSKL
Sequence of Beta-2 adrenergic receptor (P07550 whole entry): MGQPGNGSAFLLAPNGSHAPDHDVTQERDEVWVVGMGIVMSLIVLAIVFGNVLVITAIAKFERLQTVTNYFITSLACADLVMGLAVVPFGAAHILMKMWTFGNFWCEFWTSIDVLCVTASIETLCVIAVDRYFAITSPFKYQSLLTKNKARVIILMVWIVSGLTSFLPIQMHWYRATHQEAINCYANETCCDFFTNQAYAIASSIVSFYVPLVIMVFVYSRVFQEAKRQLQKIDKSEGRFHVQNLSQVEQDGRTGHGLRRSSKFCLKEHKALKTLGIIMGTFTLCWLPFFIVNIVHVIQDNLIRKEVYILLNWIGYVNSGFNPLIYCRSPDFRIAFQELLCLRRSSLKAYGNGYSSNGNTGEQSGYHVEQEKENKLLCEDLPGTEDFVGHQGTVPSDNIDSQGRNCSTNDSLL
Sequence of DNA topoisomerase (A0A2S9PM60 whole entry): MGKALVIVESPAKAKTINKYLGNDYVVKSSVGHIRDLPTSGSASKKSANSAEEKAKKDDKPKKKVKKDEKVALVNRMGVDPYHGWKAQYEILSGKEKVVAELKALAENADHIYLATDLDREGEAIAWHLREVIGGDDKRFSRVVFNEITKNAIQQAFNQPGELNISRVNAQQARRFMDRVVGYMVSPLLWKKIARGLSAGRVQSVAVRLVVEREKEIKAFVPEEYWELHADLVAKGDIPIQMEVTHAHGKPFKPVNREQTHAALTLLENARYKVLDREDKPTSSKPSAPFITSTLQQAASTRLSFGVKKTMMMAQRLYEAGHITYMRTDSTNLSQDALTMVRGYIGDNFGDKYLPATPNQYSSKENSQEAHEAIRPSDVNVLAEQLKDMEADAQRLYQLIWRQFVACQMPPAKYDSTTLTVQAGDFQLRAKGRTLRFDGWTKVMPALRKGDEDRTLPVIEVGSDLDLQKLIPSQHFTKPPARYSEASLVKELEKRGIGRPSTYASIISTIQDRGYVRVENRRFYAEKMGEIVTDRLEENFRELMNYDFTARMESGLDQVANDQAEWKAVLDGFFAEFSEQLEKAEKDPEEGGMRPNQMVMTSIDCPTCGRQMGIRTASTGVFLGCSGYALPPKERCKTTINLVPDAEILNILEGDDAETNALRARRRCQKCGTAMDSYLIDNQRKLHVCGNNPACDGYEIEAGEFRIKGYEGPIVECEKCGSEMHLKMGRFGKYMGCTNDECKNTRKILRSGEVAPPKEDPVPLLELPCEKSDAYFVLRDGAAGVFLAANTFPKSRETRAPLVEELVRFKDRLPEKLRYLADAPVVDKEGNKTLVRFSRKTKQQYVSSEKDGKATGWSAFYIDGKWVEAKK
Sequence of Dual specificity protein kinase CLK4 (Q9HAZ1 whole entry): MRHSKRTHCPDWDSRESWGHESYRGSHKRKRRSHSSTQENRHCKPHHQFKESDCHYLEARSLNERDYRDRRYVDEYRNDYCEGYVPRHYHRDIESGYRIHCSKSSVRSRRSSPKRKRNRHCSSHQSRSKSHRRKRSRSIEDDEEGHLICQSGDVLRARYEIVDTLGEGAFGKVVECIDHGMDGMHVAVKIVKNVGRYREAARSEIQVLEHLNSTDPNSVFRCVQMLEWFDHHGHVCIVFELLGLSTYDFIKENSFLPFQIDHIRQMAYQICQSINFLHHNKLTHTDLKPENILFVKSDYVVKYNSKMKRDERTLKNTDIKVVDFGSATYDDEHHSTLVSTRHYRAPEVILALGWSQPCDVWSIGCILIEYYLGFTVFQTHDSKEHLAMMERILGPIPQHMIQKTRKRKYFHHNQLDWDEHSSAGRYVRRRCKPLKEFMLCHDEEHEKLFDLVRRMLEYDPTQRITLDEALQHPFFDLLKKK
Sequence of Cysteine protease ATG4B (Q9Y4P1 whole entry): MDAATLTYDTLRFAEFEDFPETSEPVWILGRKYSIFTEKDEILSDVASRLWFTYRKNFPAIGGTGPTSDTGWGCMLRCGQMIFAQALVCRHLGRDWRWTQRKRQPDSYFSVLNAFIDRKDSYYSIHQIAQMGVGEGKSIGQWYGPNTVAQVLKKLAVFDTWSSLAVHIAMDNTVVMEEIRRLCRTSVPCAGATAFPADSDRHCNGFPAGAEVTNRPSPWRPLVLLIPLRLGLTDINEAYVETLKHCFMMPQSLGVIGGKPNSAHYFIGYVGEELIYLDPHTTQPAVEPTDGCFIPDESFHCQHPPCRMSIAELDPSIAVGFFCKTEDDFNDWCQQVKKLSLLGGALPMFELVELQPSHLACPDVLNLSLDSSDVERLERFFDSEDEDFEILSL
Sequence of Cytochrome P450 2C9 (P11712 whole entry): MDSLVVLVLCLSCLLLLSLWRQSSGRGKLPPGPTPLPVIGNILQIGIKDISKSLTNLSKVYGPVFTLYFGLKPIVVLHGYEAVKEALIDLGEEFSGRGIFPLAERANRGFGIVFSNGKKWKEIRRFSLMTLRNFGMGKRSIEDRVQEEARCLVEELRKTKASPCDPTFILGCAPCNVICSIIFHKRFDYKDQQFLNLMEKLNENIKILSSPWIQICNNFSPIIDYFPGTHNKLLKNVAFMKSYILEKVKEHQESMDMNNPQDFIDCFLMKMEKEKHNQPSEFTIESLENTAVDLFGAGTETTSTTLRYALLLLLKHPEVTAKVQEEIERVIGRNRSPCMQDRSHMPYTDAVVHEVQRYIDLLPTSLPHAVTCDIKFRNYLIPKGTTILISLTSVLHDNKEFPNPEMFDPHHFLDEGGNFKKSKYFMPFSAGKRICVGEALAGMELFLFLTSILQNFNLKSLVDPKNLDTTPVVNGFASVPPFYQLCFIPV
Sequence of Cytochrome P450 2C19 (P33261 whole entry): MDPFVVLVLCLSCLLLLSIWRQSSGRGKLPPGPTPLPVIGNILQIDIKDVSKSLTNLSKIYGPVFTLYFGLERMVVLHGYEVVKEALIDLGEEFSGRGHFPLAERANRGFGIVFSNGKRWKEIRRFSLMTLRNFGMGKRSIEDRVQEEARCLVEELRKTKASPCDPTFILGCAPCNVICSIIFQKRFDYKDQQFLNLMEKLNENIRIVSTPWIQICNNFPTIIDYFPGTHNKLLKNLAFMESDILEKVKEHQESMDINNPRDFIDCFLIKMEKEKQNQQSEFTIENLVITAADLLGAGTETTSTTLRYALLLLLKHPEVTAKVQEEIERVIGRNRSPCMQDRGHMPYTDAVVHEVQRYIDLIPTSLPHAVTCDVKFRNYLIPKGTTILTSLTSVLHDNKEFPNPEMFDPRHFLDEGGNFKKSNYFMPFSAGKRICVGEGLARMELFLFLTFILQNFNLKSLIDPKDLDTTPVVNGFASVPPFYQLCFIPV
Sequence of DNA dC->dU-editing enzyme APOBEC-3G (Q9HC16 whole entry): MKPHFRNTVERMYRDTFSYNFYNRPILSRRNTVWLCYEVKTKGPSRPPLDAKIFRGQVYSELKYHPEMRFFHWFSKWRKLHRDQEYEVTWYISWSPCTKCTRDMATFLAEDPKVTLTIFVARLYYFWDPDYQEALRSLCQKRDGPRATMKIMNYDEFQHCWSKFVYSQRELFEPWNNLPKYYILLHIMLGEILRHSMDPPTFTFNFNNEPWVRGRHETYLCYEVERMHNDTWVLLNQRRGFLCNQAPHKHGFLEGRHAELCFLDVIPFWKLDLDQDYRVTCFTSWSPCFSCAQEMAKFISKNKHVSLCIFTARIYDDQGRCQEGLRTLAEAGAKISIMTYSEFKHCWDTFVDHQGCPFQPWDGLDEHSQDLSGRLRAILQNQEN

## CCOc1cc(CNCCc2ccc(S(N)(=O)=O)cc2)ccc1OCc1ccc(Cl)cc1
[1]
  EC50: 9.07 µM (active)
[2]
  EC50: > 120 µM (not active)
[3]
  EC50: 59.1 µM (active)
[4]
  EC50: 8.2 µM (active)
[5]
  EC50: 3.56 µM (active)
[6]
  IC50: > 20 µM (inactive)
Cytochrome P450 2C19
  AC50: 17.8 µM (inconclusive)
INS1
  AC50: 4.78 µM (active)
[7]
  EC50: 16.1 µM (inactive)
[8]
  AC50: 3.87 µM (active)
[9]
  AC50: 9.14 µM (active)
[10]
  AC50: 4.75 µM (active)
Cytochrome P450 2C9
  AC50: 11.2 µM (inconclusive)

## Cc1cc(NC(=O)c2ccc3c(c2)OCCO3)ccc1NC(=O)c1cc2ccccc2o1
[11]
  CC50: 18.2 µM (active)
[12]
  EC50: 14 µM (active)
[13]
  CC50: > 40 µM (active)
Streptokinase A
  EC50: > 150 µM (not active)
Streptococcus
  EC50: 14.9 µM (active)
HEK293 [14]
  IC50: 8.04 µM (active)
Jurkat
  IC50: 38.6 µM (inactive)
HEK293 [15]
  IC50: 8.84 µM (active)
Cells [16]
  IC50: 7.55 µM (active)

## CC(=O)c1cccc(NC(=O)CCc2nnc3ccc(NCc4ccc5c(c4)OCO5)nn23)c1
DNA topoisomerase
  AC50: 7.46 µM (active)

## Nc1c(C(=O)NC2CCCCC2)nsc1C(=O)OCC(=O)NC1CCCCC1
Cells [17]
  IC50: 1.88 µM (active)
[18]
  CC50: > 100 µM (active)
[19]
  CC50: > 100 µM (active)
[20]
  CC50: > 50 µM (active)
[21]
  CC50: > 100 µM (active)
[22]
  CC50: > 50 µM (active)
[23]
  CC50: > 50 µM (active)
[24]
  CC50: > 100 µM (active)

## COc1ccc(OC)c(NS(=O)(=O)c2ccc(N3CCCC3=O)cc2)c1
[1]
  EC50: 3.37 µM (active)
BJ [25]
  EC50: 0.812 µM (active)
[2]
  EC50: 7.75 µM (active)
[3]
  EC50: 0.247 µM (active)
BJ [26]
  EC50: 27.9 µM (inconclusive)
BJ [27]
  EC50: 1.26 µM (inconclusive)
[28]
  EC50: 0.463 µM (active)
[29]
  IC50: > 80 µM (inactive)
[30]
  EC50: 22.1 µM (active)

## CC(=O)c1c(C)[nH]c(C(=O)CN(C)CC(=O)Nc2ccccc2Cl)c1C
[31]
  IC50: > 99 µM (inactive)
[32]
  IC50: > 99 µM (inactive)

## CC1CCCCN1c1ncnc2c1cnn2-c1ccc(Cl)cc1 (configuration not stated)
[33]
  AC50: 4.19 µM (active)
H4 [34]
  AC50: 0.074 µM (active)
H4 [35]
  AC50: 0.00838 µM (active)
H4 [36]
  AC50: 0.018 µM (active)

## Cc1noc(C)c1S(=O)(=O)Nc1ccc2c(c1)CC(=O)N([C@H](C)CO)C[C@H](C)[C@H](CN(C)S(=O)(=O)c1ccccc1)O2
[37]
  AC50: 19.5 µM (active)

## O=c1[nH]cnc2c(-c3ccccc3)c(C(F)(F)F)sc12
[38]
  Ki: 1.26 µM (active)
[39]
  Ki: 2.51 µM (active)
[40]
  Ki: 2 µM (active)

## O=C(CC1SC(N/N=C/c2cccs2)=NC1=O)Nc1ccc(Cl)c(Cl)c1 (configuration not stated)
Cysteine protease ATG4B
  IC50: 13.8 µM (active)
Phospholipase A2
  IC50: 4.25 µM (active)
